Measured values taken from publication PMC12372887, “Mechanism and cellular actions of the potent AMPK inhibitor BAY-3827” (Science Advances, 2025).
Entries after “also recorded” stand apart in the source; their conditions may differ.

Key:
[1] = test system: pSer79-ACC1 in U2OS cells; assay: HTRF assay of Ser79-ACC1 phosphorylation in U2OS cells; format: cell-based, human; details: for IC50: Homo sapiens, U2OS
Method: (§1) Human osteosarcoma U2OS WT cells were obtained from John Rouse (MRC Protein Phosphorylation and Ubiquitylation Unit, University of Dundee) and were cultured in DMEM high glucose + GlutaMAX Supplement, pyruvate (Thermo Fisher Scientific, catalog no. 31966-021) containing penicillin G (100 U/ml), streptomycin (100 μg/ml), and 10% (v/v) FBS seeding with 50,000 cells per well in a 50-μl volume in culture 96-well cell culture plates (Corning Incorporated costar, #3599). The next day, the media were changed to 50 μl of serum-free media, and 50 μl of serum-free media containing BAY-3827 or BAY-974 was dispensed and left to incubate at 37°C for 30 min. […] HTRF assays using either phospho-Ser^79-ACC1 kit (Revvity, #64ACCPEG) or phospho-Thr^172-AMPK kit (Revvity, #64AMPKPEG) were performed in triplicate in HTRF 96-well low volume white plates (Revvity, #66PL96001) following manufacturer’s instructions. Sealed plates incubated overnight in darkness conditions were scanned at room temperature in Multimode Plate Reader EnVision (PerkinElmer) machine following HTRF setup recommendations for EnVision (Revvity), equipped with a top mirror LANCE/DELFIA single mirror (#412), a UV2 (TRF) 320 excitation filter (#111), emission filter APC 665 (#205), and second emission filter Europium 615 (#203), with a 2000-μs cycle and 60-μs delay, with the number of flashes set to 100 as well as for the 2nd detector. Results were viewed in EnVision Manager software (version 1.13.3009.1401) where 665/615 ratios were calculated, and data were normalized to control condition as %. All assay ratios between control lysate signal/nonspecific signal were greater than 2 as expected of a successful assay following the manufacturer’s instructions. Data were visualized in GraphPad Prism v10.

[2] = test system: pThr172-AMPKα in U2OS cells; assay: HTRF assay of Thr172-AMPKα phosphorylation in U2OS cells; format: cell-based, human; details: for AMPK phosphorylation (pThr172): dose response; for EC50: Homo sapiens, U2OS
Method: as §1

[3] = test system: mouse primary hepatocytes; assay: Immunoblot of AMPK signaling in primary hepatocytes; format: cell-based
Method: (§2) Mouse hepatocytes were isolated by collagenase perfusion as previously described ([47]). Hepatocytes were seeded in medium Eagle-199 (MEM-199) (#41150, Thermo Fisher Scientific) containing penicillin G (100 U/ml), streptomycin (100 μg/ml), and 10% (v/v) fetal bovine serum (FBS). Hepatocytes were left for attachment (3 to 4 hours) and serum-starved overnight at 37°C with 5% CO2 in MEM-199 supplemented with penicillin G (100 U/ml), streptomycin (100 μg/ml), 10 nM insulin, and 100 nM dexamethasone. […] Cells were then harvested in 0.5 ml of phosphate-buffered saline (PBS), transferred into 1 ml of 40% KOH and 2 ml of methanol followed by 1-hour incubation at 80°C. Lipids were […] by acidifying the samples in 37% HCl and extracted with petroleum ether. Extracts were allowed to evaporate to dryness and then dissolved in Ultima Gold scintillation fluid for determination of [^14C]-acetate incorporation into lipids.
Following compound treatment, the cells were washed with room temperature PBS and lysed on ice with the addition of lysis buffer [50 mM tris-HCl (pH 7.5), 150 mM NaCl, 1 mM EDTA, 1 mM EGTA, 0.27 M sucrose, 1% w/v Triton X-100, 20 mM glycerol-2 phosphate disodium, 50 mM NaF, and 5 mM Na4P2O7.10 H2O] containing proteases and phosphatase inhibitors [0.5 mM phenylmethylsulfonyl fluoride (PMSF), 1 mM benzamidine HCl, leupeptin (1 μg/ml), pepstatin A (1 μg/ml), 1 μM microcystin-LR, 1 mM Na3VO4, and 1 mM DTT]. Lysates were centrifuged at 10,000g, 4°C for 10 min, and protein concentration of the supernatant was determined with the Pierce Bradford Protein Assay Kit (Thermo Fisher Scientific, #23200) and read on the Hidex Plate Reader (software version 0.5.64.0). Samples were prepared in Laemmli sample buffer (tris 200 mM, 8% SDS, EDTA 2 mM, and 40% glycerol) supplemented with 10% DTT and boiled for 5 min at 100°C. Ten micrograms of protein per sample was run on a Criterion tris-glycine polyacrylamide gel (Bio-Rad, #5678095) and transferred to a nitrocellulose membrane. For cell signaling experiments in HEK293 cells, the samples were run on a Criterion TGX stain-free precast gel (Bio-Rad, catalog no. 5678085) with transfer to a polyvinylidene difluoride membrane performed in Bio-Rad Criterion blotter (#1704071) using tris-glycine transfer buffer (Bio-Rad, #1610734) following the manufacturer’s instructions. […]

[4] = test system: AMPKα1α2+/+ control primary hepatocytes; assay: Lipogenesis assay ([14C]-acetate incorporation into fatty acids); format: cell-based, mouse
Method: as §2

[5] = in the presence of MK-8722 (10 μM)

Structure (SMILES) | inhibition of ACC1 phosphorylation ([1]; up to highest tested concentration of 100 μM) | AMPK phosphorylation (pThr172) [2] | levels of pACC1, pRaptor, or pAMPK ([3]; 5 μM, with or without MK-8722) | effect on lipogenesis ([4]; 5 μM, vehicle- and MK-8722–treated conditions) | IC50 ([1]; + MK-8722 (10 μM)) [nM] | IC50 ([1]; without MK-8722) [nM] | EC50 ([2]; + MK-8722 (10 μM)) [nM] | EC50 ([2]; without MK-8722) [nM] | concentration giving full inhibition of ACC1 phosphorylation [3, 5] [µM] | concentration giving full inhibition of Raptor phosphorylation [3, 5] [µM] | increased pThr172AMPK levels ([3]; with or without MK-8722 (10 μM)) | rescue of MK-8722–mediated inhibition of lipogenesis ([4]; 2.5 and 5 μM, + MK-8722 (10 μM)) | stimulation of lipogenesis ([4]; compound alone, 2.5 and 5 μM) [%]
CC1=C(C#N)C(c2ccc3c(c2)c(NC(=O)c2ccccc2C)nn3C)C(C#N)=C(C)N1 [BAY-974, N-[5-(3,5-dicyano-2,6-dimethyl-1,4-dihydropyridin-4-yl)-1-methylindazol-3-yl]-2-methylbenzamide] | No inhibition | not | no effect | no effect |  |  |  |  |  |  |  |  | 
CCc1ccccc1C(=O)Nc1n[nH]c2c(C)c(F)c(C3C(C#N)=C(C)N(C)C(C)=C3C#N)cc12 [BAY-3827, N-[5-(3,5-dicyano-1,2,6-trimethyl-4H-pyridin-4-yl)-6-fluoro-7-methyl-1H-indazol-3-yl]-2-ethylbenzamide] |  | dose-dependently increased |  |  | 6360 | 930 | 570 | 1930 | 5 | 2.5 | only significant under MK-8722–treated conditions at 5 μM | dose-dependently rescued; also recorded: fully reversing | 70 to 90
